Legend:
[1] = test system: Calu-3; test: cell viability relative to DMSO; higher = less toxic; details: 72 h
[2] = test system: U2OS; test: as above; details: 72 h
[3] = test system: HepG2; test: as above; details: 72 h
[4] = test system: Caco-2; test: as above; details: 72 h
[5] = test system: Vero E6; test: as above; details: 72 h
[6] = test system: A549-ACE2; test: drug-induced phospholipidosis relative to tamoxifen; higher = more phospholipidosis
[7] = test system: A549-ACE2 infected with SARS-CoV-2; test: SARS-CoV-2 infection rate relative to DMSO; higher = more infection; details: 24 h
[8] = test system: A549-ACE2 infected with SARS-CoV-2; test: morphology score (similarity to uninfected cells); higher = more like uninfected cells; details: 24 h
[9] = test system: Calu-3; test: drug sensitivity score (DSS) for viability; higher = more toxic; extreme values may be limits of the assay; details: 72 h
[10] = test system: U2OS; test: as above; details: 72 h
[11] = test system: HepG2; test: as above; details: 72 h
[12] = test system: Caco-2; test: as above; details: 72 h
[13] = test system: Vero E6; test: as above; details: 72 h
[14] = test system: U2OS; test: relative viability EC50 (midpoint between 100% and the lowest measured viability); higher = less toxic; details: 72 h
[15] = test system: HepG2; test: as above; details: 72 h
[16] = test system: Caco-2; test: as above; details: 72 h
[17] = test system: Vero E6; test: as above; details: 72 h
[18] = test system: A549-ACE2 infected with SARS-CoV-2; test: cell count relative to DMSO; higher = less toxic; details: 24 h

C=CC(=O)Nc1cccc(C)c1Nc1ncc2cc(-c3c(Cl)c(OC)cc(OC)c3Cl)ccc2n1 [BLU9931]
Details	SARS-CoV-2 infection rate, [7] [%]	cell count, [18] [%]	cell viability, [1] [%]	cell viability, [2] [%]	cell viability, [3] [%]	cell viability, [4] [%]	cell viability, [5] [%]	morphology score, [8]
1 nM	–	–	99.4	101	102	103	106	–
10 nM	–	–	103	104	108	105	98.8	–
100 nM	–	–	97.5	97.4	96.3	97	99.8	–
0.3 µM	102	106	–	–	–	–	–	0.15
1000 nM	–	–	101	104	90.5	96.8	97.6	–
3 µM	96	99	–	–	–	–	–	0.3
10000 nM	–	–	53.7	43.8	34.2	81	85.8	–
10 µM	77	75	–	–	–	–	–	0.26
30 µM	65	67	–	–	–	–	–	0.43

drug-induced phospholipidosis [%], [6]
Details	0.3 µM	0.833333 µM	3.33333 µM	6.66667 µM	10 µM	30 µM
24 h	1.97	0.46	11	14.3	20.1	73.6
48 h	2.96	1.66	13.1	–	–	–
72 h	1.37	-1.51	4.02	–	–	–

Details	drug sensitivity score	relative viability EC50 [nM]
[9]	2.3	–
[10]	2.7	–
[11]	5.2	–
[12]	0.9	–
[13]	0.4	–
[14]	–	3550
[15]	–	2020
[16]	–	> 10000
[17]	–	> 10000

CCN(CC)CCCC(C)Nc1ccnc2cc(Cl)ccc12 (stereo not given) [chloroquine]
[8]
Details	morphology score
0.3 µM	0.17
3 µM	0.37
10 µM	0.63
30 µM	0.8

Details	drug sensitivity score
[9]	0
[10]	0
[11]	0.6

CN1C(=O)/C(=C2/C(=O)Nc3ccccc32)c2ccccc21 [meisoindigo]
Details	SARS-CoV-2 infection rate, [7] [%]	cell count, [18] [%]	cell viability, [2] [%]	cell viability, [3] [%]	cell viability, [4] [%]	cell viability, [5] [%]	morphology score, [8]
1 nM	–	–	98	96.1	94.4	104	–
10 nM	–	–	102	101	104	102	–
100 nM	–	–	97.4	90.6	93.1	98.8	–
0.1 µM	103	101	–	–	–	–	-0.25
0.3 µM	103	102	–	–	–	–	-0.21
1000 nM	–	–	99	75.5	87.2	93.7	–
1 µM	102	98	–	–	–	–	-0.24
3 µM	97	101	–	–	–	–	-0.12
10000 nM	–	–	90.1	49	73.1	47.7	–

drug-induced phospholipidosis [%], [6]
Details	0.3 µM	0.833333 µM	3.33333 µM	6.66667 µM	10 µM	30 µM
24 h	-2.39	-5.22	-2.5	-1.79	–	6.15
48 h	-0.22	-2.93	-2.52	0.92	–	4.45
72 h	0.716	-2.02	-1.09	1.04	9.76	5.86

Details	drug sensitivity score	relative viability EC50 [nM]
[10]	0	–
[11]	5.6	–
[12]	2.2	–
[13]	3.8	–
[14]	–	> 10000
[15]	–	868
[17]	–	2180

Source: the supplement of paper PMC13380429
